Values of other authors, collected in patent US12364689B2, “Dosage regimen for the treatment of cancer” (AstraZeneca AB, priority 2020, dated 2025).

Legend:
ERα receptor [1] = molecular target: T1, ERα receptor (Homo sapiens, UniProt P03372); conditions: in vitro breast cell line experiments; cited from earlier work
T1 sequence (P03372 1-595): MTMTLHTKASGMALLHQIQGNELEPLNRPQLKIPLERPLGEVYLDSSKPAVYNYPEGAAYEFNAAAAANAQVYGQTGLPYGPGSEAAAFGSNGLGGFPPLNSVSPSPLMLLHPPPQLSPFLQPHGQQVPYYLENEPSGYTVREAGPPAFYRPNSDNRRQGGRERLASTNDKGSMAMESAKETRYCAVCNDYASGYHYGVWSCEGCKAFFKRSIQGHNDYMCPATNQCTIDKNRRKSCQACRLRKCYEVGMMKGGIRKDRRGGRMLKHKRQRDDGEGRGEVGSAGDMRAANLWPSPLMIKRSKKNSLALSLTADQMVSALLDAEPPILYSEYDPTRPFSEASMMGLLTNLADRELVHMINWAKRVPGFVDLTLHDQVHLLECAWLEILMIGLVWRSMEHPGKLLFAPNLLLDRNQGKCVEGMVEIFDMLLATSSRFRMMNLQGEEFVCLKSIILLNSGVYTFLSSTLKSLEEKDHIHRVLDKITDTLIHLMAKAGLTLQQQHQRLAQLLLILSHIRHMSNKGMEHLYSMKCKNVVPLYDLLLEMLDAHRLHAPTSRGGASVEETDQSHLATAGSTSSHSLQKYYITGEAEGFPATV

ERα receptor [2] = molecular target: T1, ERα receptor; conditions: 500 mg monthly dose; cited from earlier work

C[C@]12CC[C@@H]3c4ccc(O)cc4C[C@@H](CCCCCCCCC[S+]([O-])CCCC(F)(F)C(F)(F)F)[C@H]3[C@@H]1CC[C@@H]2O (some centres unmarked) [Fulvestrant, fulvestrant]
down-regulation of the receptor (ERα receptor [1]): complete down-regulation | turnover of the receptor in patient samples (ERα receptor [2]): less than 50%
